Reference: ChEMBL document CHEMBL3124773, “Stereoselective preparation of pyridoxal 1,2,3,4-tetrahydro-β-carboline derivatives and the influence of their absolute and relative configuration on the proliferation of the malaria parasite Plasmodium falciparum” (Bioorg Med Chem, 2014)

System: Plasmodium falciparum
Test: Antiplasmodial activity against Plasmodium falciparum 3D7 infected in human erythrocytes after 48 hrs by [3H]hypoxanthine incorporation assay
Format: functional, organism-based

Row | IC50 [µM] | Compound
1 | 108 | COC(=O)[C@H]1Cc2c([nH]c3ccccc23)[C@@H](c2c(CO)cnc(C)c2O)N1
2 | 22 | COC(=O)[C@@H]1Cc2c([nH]c3ccccc23)[C@@H](c2c(CO)cnc(C)c2O)N1
3 | 91 | COC(=O)[C@@H]1Cc2c([nH]c3ccccc23)[C@H](c2c(CO)cnc(C)c2O)N1
4 | 14 | COC(=O)C1Cc2c([nH]c3ccccc23)C(c2c(CO)cnc(C)c2O)N1 (stereo not given)
5 | 8 | COC(=O)[C@H]1Cc2c([nH]c3ccccc23)[C@H](c2c(CO)cnc(C)c2O)N1
